These results are taken from ChEMBL document CHEMBL2069169, “Novel triazines as potent and selective phosphodiesterase 10A inhibitors” (Bioorg Med Chem Lett, 2012).

The IC50 is the midpoint of a concentration-inhibition curve. By AUC is commonly meant concentration integrated over time. As usually defined, the bioavailability is dose-corrected exposure relative to a reference, in per cent.

The species entered for data set [1] is Homo sapiens. Nature of the data set: Selectivity ratio of IC50 PDE7 to IC50 for human recombinant PDE10A.
The target of another data set is Phosphodiesterase 3 (Homo sapiens, UniProt Q14432+Q13370). Nature of the data set: Inhibition of PDE3. The class given is protein assay.
Data set [2] addresses cAMP and cAMP-inhibited cGMP 3',5'-cyclic phosphodiesterase 10A (Homo sapiens, UniProt Q9Y233). Nature of the data set: Inhibition of human recombinant PDE10A-catalyzed cAMP hydrolysis.
Data set [3] is filed under the species Homo sapiens. Nature of the data set: Selectivity ratio of IC50 PDE2 to IC50 for human recombinant PDE10A.
The species named for data set [4] is Homo sapiens. Description: Selectivity ratio of IC50 PDE8 to IC50 for human recombinant PDE10A.
The target of a further data set is Phosphodiesterase 4 (Homo sapiens, UniProt P27815+Q08499+Q07343+Q08493). Nature of the data set: Inhibition of PDE4. The class given is protein assay.
The species entered for data set [5] is Homo sapiens. Nature of the data set: Selectivity ratio of IC50 PDE11 to IC50 for human recombinant PDE10A.
The target in data set [6] is cGMP-specific 3',5'-cyclic phosphodiesterase (Canis lupus familiaris, UniProt O77746). Nature of the data set: Inhibition of PDE5. On the set-up: species or system Homo sapiens.
A further data set concerns the target Phosphodiesterase 6. Description: Inhibition of PDE6. The class given is protein assay, Homo sapiens.
Data set [7] is filed under the species Homo sapiens. Nature of the data set: Selectivity ratio of IC50 PDE9 to IC50 for human recombinant PDE10A.
The species named for data set [8] is Homo sapiens. Description: Selectivity ratio of IC50 PDE4 to IC50 for human recombinant PDE10A.
For data set [9], the target named is cGMP-dependent 3',5'-cyclic phosphodiesterase (Homo sapiens, UniProt O00408). Nature of the data set: Inhibition of PDE2.
cGMP-dependent 3',5'-cyclic phosphodiesterase, sequence (O00408 whole entry): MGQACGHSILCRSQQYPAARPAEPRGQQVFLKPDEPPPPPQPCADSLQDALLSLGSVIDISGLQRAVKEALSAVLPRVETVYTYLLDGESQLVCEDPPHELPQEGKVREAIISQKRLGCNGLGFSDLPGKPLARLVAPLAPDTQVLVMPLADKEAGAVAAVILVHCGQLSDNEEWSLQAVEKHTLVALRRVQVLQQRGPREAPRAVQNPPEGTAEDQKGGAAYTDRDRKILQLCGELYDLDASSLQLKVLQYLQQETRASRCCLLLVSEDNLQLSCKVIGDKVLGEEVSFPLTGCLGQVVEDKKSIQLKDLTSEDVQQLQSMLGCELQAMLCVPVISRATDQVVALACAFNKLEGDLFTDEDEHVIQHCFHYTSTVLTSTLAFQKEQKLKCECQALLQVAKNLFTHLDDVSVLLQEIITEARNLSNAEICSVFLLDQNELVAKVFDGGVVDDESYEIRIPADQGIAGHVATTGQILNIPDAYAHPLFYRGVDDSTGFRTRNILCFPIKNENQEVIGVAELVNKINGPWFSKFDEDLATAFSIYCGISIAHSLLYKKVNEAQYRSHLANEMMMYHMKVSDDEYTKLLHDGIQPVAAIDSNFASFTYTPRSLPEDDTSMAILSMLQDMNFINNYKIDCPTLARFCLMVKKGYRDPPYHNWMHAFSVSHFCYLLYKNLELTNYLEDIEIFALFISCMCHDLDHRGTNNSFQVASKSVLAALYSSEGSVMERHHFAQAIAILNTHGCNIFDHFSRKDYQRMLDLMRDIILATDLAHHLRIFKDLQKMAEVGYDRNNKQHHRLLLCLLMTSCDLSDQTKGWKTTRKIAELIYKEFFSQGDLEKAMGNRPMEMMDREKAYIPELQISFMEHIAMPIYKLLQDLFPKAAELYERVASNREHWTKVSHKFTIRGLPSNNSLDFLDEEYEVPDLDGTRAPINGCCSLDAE
Data set [10] is filed under the species Homo sapiens. Nature of the data set: Selectivity ratio of IC50 PDE5 to IC50 for human recombinant PDE10A.
The species entered for data set [11] is Homo sapiens. Nature of the data set: Selectivity ratio of IC50 PDE6 to IC50 for human recombinant PDE10A.
For data set [12], the species on record is Homo sapiens. Nature of the data set: Selectivity ratio of IC50 PDE1 to IC50 for human recombinant PDE10A.
For data set [13], the species on record is Homo sapiens. Nature of the data set: Selectivity ratio of IC50 PDE3 to IC50 for human recombinant PDE10A.
Data set [14] deals with Rattus norvegicus. Description: Antipsychotic activity in po dosed rat assessed as reduction of MK801-induced stereotyped sniffing. The format is functional. On the set-up: Activity: scale not given: the % may be the effect or the level left.
The test system of data set [15] is Rattus norvegicus. Description: Antipsychotic activity in po dosed Sprague-Dawley rat assessed as reduction of conditioned avoidance response. The class given is functional.
The nature of data set [16]: Volume of distribution at steady state in rat at 2 mg/kg, iv and 10 mg/kg, po. The format is ADME, organism-based. Particulars: in vivo, read-out: Vdss.
A short description of data set [17]: AUC in rat plasma at 2 mg/kg, iv and 10 mg/kg, po. The class given is ADME, organism-based.
Data set [18] has as its system Rattus norvegicus. Description: Antipsychotic activity in po dosed rat assessed as reduction of MK801-induced hyperactivity. On the set-up: Activity: scale not given: the % may be the effect or the level left. The format is functional.
Data set [19] can be described thus: Elimination half life in rat at 2 mg/kg, iv and 10 mg/kg, po. The class given is ADME, organism-based. Particulars: in vivo, read-out: beta t1/2 (converted).
Data set [20] deals with Rattus norvegicus. Description: Antipsychotic activity in Sprague-Dawley rat assessed as reduction of conditioned avoidance response at 0.17 mg/kg, po. On the set-up: dose 0.17 mg/kg. The format is functional, organism-based.
Data set [21] can be described thus: Oral bioavailability in rat at 10 mg/kg. The class given is ADME, organism-based. Particulars: in vivo.
Data set [22] can be described thus: AUC in rat brain at 2 mg/kg, iv and 10 mg/kg, po. The class given is ADME, organism-based.
Data set [23] is described as follows: Clearance in rat at 2 mg/kg, iv and 10 mg/kg, po. Particulars: in vivo. The format is ADME, organism-based.
Where [24] appears, read: Rattus norvegicus, po, read-out: MED.

Each structure is given as a SMILES string. Calls of active or inactive are those of the source. The calls are words filed in the database; no cut-off is given here.

cAMP and cAMP-inhibited cGMP 3',5'-cyclic phosphodiesterase 10A, sequence (Q9Y233 whole entry): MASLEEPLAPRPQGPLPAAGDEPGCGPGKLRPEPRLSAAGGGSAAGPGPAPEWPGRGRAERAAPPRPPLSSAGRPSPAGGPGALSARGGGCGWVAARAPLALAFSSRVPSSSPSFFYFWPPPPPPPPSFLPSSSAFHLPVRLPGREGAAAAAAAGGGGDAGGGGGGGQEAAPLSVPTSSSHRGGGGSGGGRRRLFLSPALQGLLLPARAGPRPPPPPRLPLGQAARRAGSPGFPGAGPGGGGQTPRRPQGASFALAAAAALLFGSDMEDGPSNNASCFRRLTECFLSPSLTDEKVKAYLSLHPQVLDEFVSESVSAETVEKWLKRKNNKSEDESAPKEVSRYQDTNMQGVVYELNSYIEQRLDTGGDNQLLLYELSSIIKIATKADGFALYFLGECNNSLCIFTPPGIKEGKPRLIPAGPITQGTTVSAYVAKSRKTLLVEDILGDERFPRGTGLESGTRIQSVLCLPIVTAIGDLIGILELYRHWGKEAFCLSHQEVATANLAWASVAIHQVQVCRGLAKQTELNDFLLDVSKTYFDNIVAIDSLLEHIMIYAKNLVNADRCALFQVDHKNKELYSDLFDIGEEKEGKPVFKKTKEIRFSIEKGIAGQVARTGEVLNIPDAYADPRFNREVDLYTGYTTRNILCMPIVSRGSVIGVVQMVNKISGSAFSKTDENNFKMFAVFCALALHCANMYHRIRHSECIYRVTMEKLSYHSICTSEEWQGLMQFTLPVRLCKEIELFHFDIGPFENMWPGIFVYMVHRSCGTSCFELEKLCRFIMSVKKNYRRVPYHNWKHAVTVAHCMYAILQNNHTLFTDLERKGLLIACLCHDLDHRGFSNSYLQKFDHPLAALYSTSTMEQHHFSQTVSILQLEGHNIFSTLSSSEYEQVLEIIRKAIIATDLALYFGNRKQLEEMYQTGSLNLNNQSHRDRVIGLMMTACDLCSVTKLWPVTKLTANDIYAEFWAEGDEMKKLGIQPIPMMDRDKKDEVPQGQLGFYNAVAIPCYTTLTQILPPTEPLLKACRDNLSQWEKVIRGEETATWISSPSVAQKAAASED

Consider `COc1ccnc2c1nnc1c(C)nc(-c3cccnc3C)n12`, for which the Ratio IC50 is > 500 in the data set listed under Homo sapiens [1]; > 100 in the data set listed under Homo sapiens [3]; > 500 in the data set listed under Homo sapiens [4]; > 500 in the data set filed under Homo sapiens [5]; > 500 in the data set listed under Homo sapiens [7]; > 100 in the data set filed under Homo sapiens [8]. Besides, the Ratio IC50 in the data set filed under Homo sapiens [10] is > 100; in the data set filed under Homo sapiens [11] it was > 100; in the data set listed under Homo sapiens [12], > 500; in the data set filed under Homo sapiens [13], > 100. Also, the IC50 was > 10 µM at Phosphodiesterase 3; 0.0124 µM in data set [2]; 6.96 µM at Phosphodiesterase 4; > 5 µM in [6]; > 5 µM on Phosphodiesterase 6; 0.974 µM in data set [9].

In the case of `COc1cc(C(F)(F)F)cc2c1nnc1c(C)nc(-c3ccncc3C)n12`, the 50% inhibitory concentration (IC50) on Phosphodiesterase 3 is > 10 µM; against Phosphodiesterase 4, > 10 µM; in [6], 2.29 µM; on Phosphodiesterase 6, 1.79 µM. Moreover, the Activity with Rattus norvegicus [14] was determined as 18.4%; in the data set with Rattus norvegicus [18], 40.5%. Also, the minimal effective dose in the data set with Rattus norvegicus [14] (setting [24]) and in the data set with Rattus norvegicus [18] (setting [24]) was 0.1 mg/kg in each case. Moreover, the ID30 in the data set with Rattus norvegicus [15] was found to be 0.123 mg/kg. Also, the ED50 in the data set with Rattus norvegicus [15] (Rattus norvegicus, Sprague-Dawley, po, read-out: ID50 (the source's name)) was 0.204 mg/kg. In addition, the Vd in data set [16] was 1.3 L/kg. Also, the AUC was 1.6 µg·h/mL in [17] and 0.622 µg·h/mL in data set [22]. In [19], the half-life is 4.5 h. Besides, the result in the data set on Rattus norvegicus [20] was Active. The compound also had a bioavailability in data set [21] of 53%. This compound returned a clearance in [23] of 0.3 L/h/kg.
